Among the data in patent US11028088B2, “Modulators of BTK proteolysis and methods of use” (Yale University, priority 2018, dated 2021) are remaining binding values, retold here.

This assay concerns the target BLK (Homo sapiens, UniProt P51451). The assay is described as follows: KINOMEscan competition binding assay, BLK. The following applies: read-out: KINOMEscan percentage of control, BLK.

BLK, sequence (P51451 whole entry): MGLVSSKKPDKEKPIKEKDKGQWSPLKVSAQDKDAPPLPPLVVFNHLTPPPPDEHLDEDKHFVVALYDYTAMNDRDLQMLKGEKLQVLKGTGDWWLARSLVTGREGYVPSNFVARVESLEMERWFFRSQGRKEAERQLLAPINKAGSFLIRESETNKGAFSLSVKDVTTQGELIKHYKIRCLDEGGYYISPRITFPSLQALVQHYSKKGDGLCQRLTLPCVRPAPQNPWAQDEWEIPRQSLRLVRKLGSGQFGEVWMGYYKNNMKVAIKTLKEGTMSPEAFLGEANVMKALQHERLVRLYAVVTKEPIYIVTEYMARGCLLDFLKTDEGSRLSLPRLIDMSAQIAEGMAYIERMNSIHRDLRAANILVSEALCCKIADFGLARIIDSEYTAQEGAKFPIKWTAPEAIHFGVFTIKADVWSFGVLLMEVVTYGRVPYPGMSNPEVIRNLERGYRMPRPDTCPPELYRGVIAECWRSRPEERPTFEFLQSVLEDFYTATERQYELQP

On to `Nc1ncnc2c1c(-c1ccc(Oc3ccccc3)cc1)nn2C1CCN(CCOCCOCC(=O)Nc2ccc3c(c2)C(=O)N(C2CCC(=O)NC2=O)C3=O)CC1` (stereo not shown) [Compound 102, 2-[2-[2-[4-[4-amino-3-(4-phenoxyphenyl)pyrazolo[3,4-d]pyrimidin-1-yl]-1-piperidyl]ethoxy]ethoxy]-N-[2-(2,6-dioxo-3-piperidyl)-1,3-dioxo-isoindolin-5-yl]acetamide], for which the remaining binding at 1 µM was 0.35%.
